24 compounds from US10899769B2, “Imidazopiperazinone inhibitors of transcription activating proteins” (Board of Regents, The University of Texas System, priority 2018, dated 2021) can be followed below.

One assay has as its target BRD4(49-170) bromodomain (Homo sapiens (Human), UniProt O60885). Description: BRD4 AlphaScreen Assay. Particulars: binding to biotin-H4(1-21) Ac-K5/8/12/16. An outline of the steps: (§1)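 AlphaScreen binding of GST-bromodomain to biotin-H4(1-21) Ac-K5/8/12/16: 5 nM CBP with 20 nM peptide, or 2.5 nM BRD4 with 10 nM peptide, in 50 mM HEPES 7.5, […], 1 mM TCEP, 0.003% Tween-20. Compound preincubated 30 min, then beads 2 h, room temperature. IC50 from variable-slope fit.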
On the technique in general: In Alpha technology, singlet oxygen from a donor bead excites a nearby acceptor bead.

The target of assay [1] is GST-CBP(1081-1197) bromodomain (Homo sapiens (Human), UniProt Q92793). Description: CBP AlphaScreen Assay. Particulars: binding to biotin-H4(1-21) Ac-K5/8/12/16. An outline of the steps:
as §1

GST-CBP(1081-1197) bromodomain, sequence (Q92793 1081-1197): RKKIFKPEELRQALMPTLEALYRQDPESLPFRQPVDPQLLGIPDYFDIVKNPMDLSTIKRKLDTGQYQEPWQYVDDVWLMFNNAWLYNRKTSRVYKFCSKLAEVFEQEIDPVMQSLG

As for `Cc1nn(C)cc1-c1nc2cccc(-c3nc(C4CC4)n4c3CN(C)C(=O)C4C)c2cc1C(F)F` (stereo not drawn) [Example 65, 3-cyclopropyl-1-(3-(difluoromethyl)-2-(1,3-dimethyl-1H-pyrazol-4-yl)quinolin-5-yl)-5,7-dimethyl-7,8-dihydroimidazo[1,5-a] pyrazin-6(5H)-one], the IC50 – broadly, the midpoint of a concentration-inhibition curve – at BRD4(49-170) bromodomain is 0.426 µM; in assay [1], 0.017 µM.

In the case of `CC1C(=O)N(C)Cc2c(-c3cccc4cc(-c5ncco5)ncc34)nc(C3CC3)n21` (stereo not drawn) [Example 66, 3-cyclopropyl-5,7-dimethyl-1-(3-(oxazol-2-yl)isoquinolin-8-yl)-7,8-dihydroimidazo[1,5-a] pyrazin-6(5H)-one], the IC50 on BRD4(49-170) bromodomain was 1.59 µM; in assay [1], 0.011 µM.

Consider `Cc1ncn(-c2nc3cccc(-c4nc(C5CC5)n5c4CN(C)C(=O)C5C)c3cc2C(F)F)n1` (stereo not drawn) [Example 67, 3-cyclopropyl-1-(3-(difluoromethyl)-2-(3-methyl-1H-1,2,4-triazol-1-yl)quinolin-5-yl)-5,7-dimethyl-7,8-dihydroimidazo[1,5-a] pyrazin-6(5H)-one], for which the 50% inhibitory concentration (IC50) is 0.319 µM on BRD4(49-170) bromodomain and 0.003 µM in assay [1].

In the case of `Cc1ncc(-c2nc3cccc(-c4nc(C5CC5)n5c4CN(C)C(=O)C5C)c3cc2C(F)F)s1` (stereo not drawn) [Example 68, 3-cyclopropyl-1-(3-(difluoromethyl)-2-(2-methylthiazol-5-yl)quinolin-5-yl)-5,7-dimethyl-7,8-dihydroimidazo[1,5-a] pyrazin-6(5H)-one], the IC50 was found to be 0.163 µM at BRD4(49-170) bromodomain and 0.005 µM in assay [1].

As for `CC1C(=O)N(C)Cc2c(-c3cccc4nc(-c5cn(C)cn5)c(C(F)F)cc34)nc(C3CC3)n21` (stereo not drawn) [Example 69, 3-cyclopropyl-1-(3-(difluoromethyl)-2-(1-methyl-1H-imidazol-4-yl)quinolin-5-yl)-5,7-dimethyl-7,8-dihydroimidazo[1,5-a] pyrazin-6(5H)-one], the IC50 on BRD4(49-170) bromodomain is 1.53 µM; in assay [1] it was 0.013 µM.

In the case of `Cc1cn(-c2cc3cccc(-c4nc(C5CC5)n5c4CN(C)C(=O)C5C)c3cn2)cn1` (stereo not drawn) [Example 70, 3-cyclopropyl-5,7-dimethyl-1-(3-(4-methyl-1H-imidazol-1-yl)isoquinolin-8-yl)-7,8-dihydroimidazo[1,5-a] pyrazin-6(5H)-one], the IC50 is 0.667 µM at BRD4(49-170) bromodomain and 0.002 µM in assay [1].

In the case of `Cc1ncn(-c2cc3cccc(-c4nc(C5CC5)n5c4CN(C)C(=O)C5C)c3cn2)n1` (stereo not drawn) [Example 71, 3-cyclopropyl-5,7-dimethyl-1-(3-(3-methyl-1H-1,2,4-triazol-1-yl)isoquinolin-8-yl)-7,8-dihydroimidazo[1,5-a] pyrazin-6(5H)-one], the IC50 at BRD4(49-170) bromodomain stood at 0.868 µM; in assay [1], 0.004 µM.

Consider `Cc1cn(-c2cc3cccc(-c4nc(C5CC5)n5c4CN(C)C(=O)C5C)c3cn2)nc1C` (stereo not drawn) [Example 72, 3-cyclopropyl-1-(3-(3,4-dimethyl-1H-pyrazol-1-yl)isoquinolin-8-yl)-5,7-dimethyl-7,8-dihydroimidazo[1,5-a] pyrazin-6(5H)-one], for which the IC50 at BRD4(49-170) bromodomain was found to be 0.297 µM; in assay [1], 0.002 µM.

Turning to `Cc1ccn(-c2cc3cccc(-c4nc(C5CC5)n5c4CN(C)C(=O)C5C)c3cn2)n1` (stereo not drawn) [Example 73, 3-cyclopropyl-5,7-dimethyl-1-(3-(3-methyl-1H-pyrazol-1-yl)isoquinolin-8-yl)-7,8-dihydroimidazo[1,5-a] pyrazin-6(5H)-one], the IC50 at BRD4(49-170) bromodomain was determined as 0.408 µM; in assay [1], 0.003 µM.

Regarding `CC1C(=O)N(C)Cc2c(-c3cccc4nc(-c5ncco5)c(C(F)F)cc34)nc(C3CC3)n21` (stereo not drawn) [Example 74, 3-cyclopropyl-1-(3-(difluoromethyl)-2-(oxazol-2-yl)quinolin-5-yl)-5,7-dimethyl-7,8-dihydroimidazo[1,5-a] pyrazin-6(5H)-one], the IC50 at BRD4(49-170) bromodomain was found to be 0.179 µM; in assay [1], 0.004 µM.

Take `CC1C(=O)N(C)Cc2c(-c3cccc4nc(-c5cnn(C)c5)c(C(F)F)cc34)nc(C3CCNCC3)n21` (stereo not drawn) [Example 75, 1-(3-(difluoromethyl)-2-(1-methyl-1H-pyrazol-4-yl)quinolin-5-yl)-5,7-dimethyl-3-(piperidin-4-yl)-7,8-dihydroimidazo[1,5-a] pyrazin-6(5H)-one]: the IC50 on BRD4(49-170) bromodomain turned out to be 12 µM; in assay [1] it was 0.172 µM.

For the compound `CC1C(=O)N(C)Cc2c(-c3cccc4cc(-c5cn(C)cn5)ncc34)nc(C3CC3)n21` (stereo not drawn) [Example 76, 3-cyclopropyl-5,7-dimethyl-1-(3-(1-methyl-1H-imidazol-4-yl)isoquinolin-8-yl)-7,8-dihydroimidazo[1,5-a] pyrazin-6(5H)-one], the IC50 worked out at 0.384 µM at BRD4(49-170) bromodomain and 0.002 µM in assay [1].

On to `CC1C(=O)N(C)Cc2c(-c3cccc4nc(-c5cnn(C)c5)c(C(F)F)cc34)nc(C3CCN(CC(F)(F)F)CC3)n21` (stereo not drawn) [Example 77, 1-(3-(difluoromethyl)-2-(1-methyl-1H-pyrazol-4-yl)quinolin-5-yl)-5,7-dimethyl-3-(1-(2,2,2-trifluoroethyl)piperidin-4-yl)-7,8-dihydroimidazo [1,5-a] pyrazin-6(5H)-one], for which the values for the IC50 (on BRD4(49-170) bromodomain; in assay [1]) were 2.89 µM and 0.034 µM, respectively.

On to `CC1C(=O)N(C)Cc2c(-c3cccc4nc(-c5cnn(C)c5)c(C(F)F)cc34)nc(C3CCN(CC(F)F)CC3)n21` (stereo not drawn) [Example 78, 3-(1-(2,2-difluoroethyl)piperidin-4-yl)-1-(3-(difluoromethyl)-2-(1-methyl-1H-pyrazol-4-yl)quinolin-5-yl)-5,7-dimethyl-7,8-dihydroimidazo[1,5-a] pyrazin-6(5H)-one], for which the figures for the IC50 (at BRD4(49-170) bromodomain; in assay [1]) were 3.77 µM and 0.041 µM, respectively.

Regarding `CNC(=O)N1CCC(c2nc(-c3cccc4nc(-c5cnn(C)c5)c(C(F)F)cc34)c3n2C(C)C(=O)N(C)C3)CC1` (stereo not drawn) [Example 79, 4-(1-(3-(difluoromethyl)-2-(1-methyl-1H-pyrazol-4-yl)quinolin-5-yl)-5,7-dimethyl-6-oxo-5,6,7,8-tetrahydroimidazo[1,5-a]pyrazin-3-yl)-N-methylpiperidine-1-carboxamide], the IC50 at BRD4(49-170) bromodomain came out at 2.43 µM; in assay [1] it was 0.039 µM.

For `CC(=O)N1CCC(c2nc(-c3cccc4nc(-c5cnn(C)c5)c(C(F)F)cc34)c3n2C(C)C(=O)N(C)C3)CC1` (stereo not drawn) [Example 80, 3-(1-acetylpiperidin-4-yl)-1-(3-(difluoromethyl)-2-(1-methyl-1H-pyrazol-4-yl)quinolin-5-yl)-5,7-dimethyl-7,8-dihydroimidazo[1,5-a] pyrazin-6(5H)-one], the IC50 at BRD4(49-170) bromodomain came out at 2.56 µM; in assay [1], 0.045 µM.

Consider `CC1C(=O)N(C)Cc2c(-c3cccc4nc(-c5cnn(C)c5)c(C(F)F)cc34)nc(C3CCN(CCF)CC3)n21` (stereo not drawn) [Example 81, 1-(3-(difluoromethyl)-2-(1-methyl-1H-pyrazol-4-yl)quinolin-5-yl)-3-(1-(2-fluoroethyl)piperidin-4-yl)-5,7-dimethyl-7,8-dihydroimidazo[1,5-a] pyrazin-6(5H)-one], for which the figures for the IC50 (on BRD4(49-170) bromodomain; in assay [1]) were 9.63 µM and 0.153 µM, respectively.

For the compound `COCCN1CCC(c2nc(-c3cccc4nc(-c5cnn(C)c5)c(C(F)F)cc34)c3n2C(C)C(=O)N(C)C3)CC1` (stereo not drawn) [Example 82, 1-(3-(difluoromethyl)-2-(1-methyl-1H-pyrazol-4-yl)quinolin-5-yl)-3-(1-(2-methoxyethyl)piperidin-4-yl)-5,7-dimethyl-7,8-dihydroimidazo[1,5-a] pyrazin-6(5H)-one], the IC50 is 12.3 µM at BRD4(49-170) bromodomain and 0.227 µM in assay [1].

Turning to `CC1C(=O)N(C)Cc2c(-c3cccc4nc(-c5cnn(C)c5)c(C(F)F)cc34)nc(C3CCN(S(C)(=O)=O)CC3)n21` (stereo not drawn) [Example 83, 1-(3-(difluoromethyl)-2-(1-methyl-1H-pyrazol-4-yl)quinolin-5-yl)-5,7-dimethyl-3-(1-(methylsulfonyl)piperidin-4-yl)-7,8-dihydroimidazo[1,5-a] pyrazin-6(5H)-one], the IC50 on BRD4(49-170) bromodomain was determined as 3.23 µM; in assay [1], 0.042 µM.

On to `CC1C(=O)N(C)Cc2c(-c3cccc4nc(-c5cnn(C)c5)c(C(F)F)cc34)nc(C3CCN(CCO)CC3)n21` (stereo not drawn) [Example 84, 1-(3-(difluoromethyl)-2-(1-methyl-1H-pyrazol-4-yl)quinolin-5-yl)-3-(1-(2-hydroxyethyl)piperidin-4-yl)-5,7-dimethyl-7,8-dihydroimidazo[1,5-a] pyrazin-6(5H)-one], for which the IC50 on BRD4(49-170) bromodomain turned out to be 11.7 µM; in assay [1], 0.23 µM.

Take `CC1C(=O)N(C)Cc2c(-c3cccc4cc(-c5ccn(C)n5)ncc34)nc(C3CCOCC3)n21` (stereo not drawn) [Example 85, 5,7-dimethyl-1-(3-(1-methyl-1H-pyrazol-3-yl)isoquinolin-8-yl)-3-(tetrahydro-2H-pyran-4-yl)-7,8-dihydroimidazo[1,5-a] pyrazin-6(5H)-one]: the values for the IC50 (on BRD4(49-170) bromodomain; in assay [1]) were 24.1 µM and 0.078 µM, respectively.

For the compound `CC1C(=O)N(C)Cc2c(-c3cccc4cc(-c5ccn(C)n5)ncc34)nc(C3CCOCC3)n21` (stereo not drawn) [Example 86, 5,7-dimethyl-1-(3-(1-methyl-1H-pyrazol-3-yl)isoquinolin-8-yl)-3-(tetrahydro-2H-pyran-4-yl)-7,8-dihydroimidazo[1,5-a] pyrazin-6(5H)-one], the IC50 on BRD4(49-170) bromodomain stood at 0.232 µM; in assay [1], 0.001 µM.

`Cc1nn(C)cc1-c1cc2cccc(-c3nc(C4CCOCC4)n4c3CN(C)C(=O)C4C)c2cn1` (stereo not drawn) [Example 87, 1-(3-(1,3-dimethyl-1H-pyrazol-4-yl)isoquinolin-8-yl)-5,7-dimethyl-3-(tetrahydro-2H-pyran-4-yl)-7,8-dihydroimidazo[1,5-a] pyrazin-6(5H)-one]: the IC50 came to 10.7 µM on BRD4(49-170) bromodomain and 0.077 µM in assay [1].

Regarding `Cc1nn(C)cc1-c1cc2cccc(-c3nc(C4CCOCC4)n4c3CN(C)C(=O)C4C)c2cn1` (stereo not drawn) [Example 88, 1-(3-(1,3-dimethyl-1H-pyrazol-4-yl)isoquinolin-8-yl)-5,7-dimethyl-3-(tetrahydro-2H-pyran-4-yl)-7,8-dihydroimidazo[1,5-a] pyrazin-6(5H)-one], the IC50 is 0.101 µM on BRD4(49-170) bromodomain and 0.001 µM in assay [1].
